Experimental data taken from patent US20110293559A1, “CATABOLIC AGENTS” (priority 2008, published 2011).
Read-outs that look alike come from different tables or passages of the source.

Columns and labels:
[1] = tested on: immature articular cartilage explants; experiment: Mechanical push-out test of disc/ring interface; format: cell-based; settings: FIG. 2, 3 weeks in culture, n=4
Source text: Six millimetre diameter cartilage explants from immature articular cartilage containing 3 mm diameter inner cores, both created using punch biopsy tools (Steifel), were placed in Dulbecco's modified Eagles medium (DMEM) culture medium containing various concentrations of interleukin-1β or tumour necrosis factor α (TNFα; Peprotech), or, the culture medium without cytokine as a control. The medium was removed after the nominated time and washed once with DMEM then replaced with DMEM medium containing 50 μg/ml ascorbate, 10 mM HEPES, gentamycin and supplemented with 1× insulin-transferrin-selenium (ITS; Sigma). For qPCR studies the explants were first allowed to equilibriate in serum containing medium for 3 days, then washed 3 times in serum-free DMEM before the treatment as described above. […]
Adhesive properties of the disc/ring interface after 3-weeks in culture were assessed using a push-out test (n=4). Thickness of the sample was measured using calipers. […] A computer activated micro-stepper controlled the displacement of the push-out rod (0.05 mm/min), whilst a load cell (100N) coupled to the rod measured the push-out force. The adhesive strength was calculated from the maximum force measured at failure per unit of interfacial area.

cartilage = settings: in vitro, cited from earlier work
[2] = tested on: immature articular cartilage explants; experiment: Disc-core cartilage explant integration culture with histology; format: cell-based
Source text: Six millimetre diameter cartilage explants from immature articular cartilage containing 3 mm diameter inner cores, both created using punch biopsy tools (Steifel), were placed in Dulbecco's modified Eagles medium (DMEM) culture medium containing various concentrations of interleukin-1β or tumour necrosis factor α (TNFα; Peprotech), or, the culture medium without cytokine as a control. The medium was removed after the nominated time and washed once with DMEM then replaced with DMEM medium containing 50 μg/ml ascorbate, 10 mM HEPES, gentamycin and supplemented with 1× insulin-transferrin-selenium (ITS; Sigma). For qPCR studies the explants were first allowed to equilibriate in serum containing medium for 3 days, then washed 3 times in serum-free DMEM before the treatment as described above. For long term culture following 2 hour cytokine treatment explants were treated immediately following their excision from the joint, then cultured for 4 weeks in serum-free DMEM containing ITS, ascorbate, HEPES and gentamycin. The culture medium was changes 3 times a week.
Four week core and disc cultures were fixed with neutral-buffered formyl-saline and left overnight at 4 C. The explants were then processed for wax embedding. Ten micron sections were cut using a microtome, and sections dewaxed and rehydrated in a descending series of alcohols. Sections were stained with haemotoxylin (1 minute), washed in water and then stained with Safranin-O (2 minutes) washed briefly in water and then dehydrated, dipped in xylene and then mounted in DPX liquid under coverslips.

MMP13 gene expression = experiment: qPCR MMP13 gene expression in cartilage explants; format: cell-based
Procedure: The medium was removed after the nominated time and washed once with DMEM then replaced with DMEM medium containing 50 μg/ml ascorbate, 10 mM HEPES, gentamycin and supplemented with 1× insulin-transferrin-selenium (ITS; Sigma). For qPCR studies the explants were first allowed to equilibriate in serum containing medium for 3 days, then washed 3 times in serum-free DMEM before the treatment as described above. For long term culture following 2 hour cytokine treatment explants were treated immediately following their excision from the joint, then cultured for 4 weeks in serum-free DMEM containing ITS, ascorbate, HEPES and gentamycin. The culture medium was changes 3 times a week.
Quantitative polymerase chain reaction (qPCR) using the fluorescent dye SYBR Green (Eurogentec, Belgium) was used to determine the absolute expression levels of ADAMTS4 and MMP-13 between explants. Real-time PCR reactions were carried out in 25 μl volumes in a 96-well plate (Applied Biosystems™) containing 1× buffer (10×), 3.5 mM MgCl2, 200 μM dNTPs, 0.3 μM of sense and antisense primers, 0.025 U enzyme and 1:66000 SYBR GreenI®. All reactions were made using gPCR™ Core Kit for SYBR Green I® (Eurogentec). At the end of each reaction, the cycle threshold (CT) was manually setup at the level that reflected the best kinetic PCR parameters, and melting curves were acquired and analysed. Absolute values for the gene of interest were calculated from standard curves generated using serially diluted plasmid cloned and sequence verified template (ng DNA) and were normalized to the housekeeping gene 18S rRNA.

| Compound | force to push out the explant from the disc versus untreated explants [1] | cartilage integration (cartilage; 1 pg/ml or 100 pg/ml, 14 days) | cartilage integration (cartilage; 10 pg/ml, incubation of the cartilage for 14 days) | integration between disc and core cartilages ([2]; 10 ng/ml for 24 hours, unsupplemented culture medium, cultured for a further 2 weeks (FIG. 1A)) | chondrocyte migration in the interfacial matrix ([2]; 25 ng/ml IL1β for 2 hours, then 4 weeks culture, high power histology (FIG. 9)) | integration, assessed qualitatively through retention of matrix integrity (safranin-O histology) ([2]; 25 ng/ml IL1β for 2 hours, then 4 weeks serum-free culture with ITS (FIG. 8)) | increase in MMP13 gene expression (MMP13 gene expression; 25 ng/ml IL1β, 2 hours, P>0.116, n=3 (FIG. 3)) | MMP13 gene expression, effect of increasing concentrations (MMP13 gene expression; 12.5-100 ng/ml for 2 hours) | increase in MMP13 gene expression (MMP13 gene expression; 100 μM retinoic acid, 2 hour incubation, P<0.03, n=3 (FIG. 6)) |
| --- | --- | --- | --- | --- | --- | --- | --- | --- | --- |
| IL1β: catabolic cytokine, member of the interleukin-1 superfamily | almost six times more force | not consistent | enhanced cartilage integration | enhances integration | presence of migrating chondrocytes within the interfacial matrix | best achieved | 1.64 fold | increase in MMP13 gene expression | – |
| CC1=C(/C=C/C(C)=C/C=C/C(C)=C/C(=O)O)C(C)(C)CCC1 [Retinoic acid, reference compound] | – | – | – | – | – | – | – | – | approximately 3 fold |
